Measured values published in ChEMBL document CHEMBL1137019, “Maintenance of therapeutic concentrations of caspofungin after temporary treatment interruption (48 hours) in a child with invasive aspergillosis” (Antimicrob Agents Chemother, 2007).
≈ marks a conversion by molar mass, not a printed value.

Assays:
[1] = Trough plasma concentration in child with invasive aspergillosis at 30 mg/day for 5 days measured on last day of therapy; format: ADME, organism-based; conditions: human, read-out: Cmin
[2] = Peak plasma concentration in child with invasive aspergillosis at 30 mg/day for 5 days measured on last day of therapy; format: ADME, organism-based; parameters: dose 30 mg/day; conditions: human
Homo sapiens [3] = assay: Trough plasma concentration in child with invasive aspergillosis administered at 30 mg/day schedule for 5 days followed by 48 hrs temporary treatment interruption measured on first day of resumption of therapy; format: ADME, organism-based; conditions: in vivo
Homo sapiens [4] = assay: Plasma concentration in human at 5 to 100 mg, iv; format: ADME, organism-based; conditions: in vivo
Aspergillus fumigatus = assay: Antifungal activity against Aspergillus fumigatus; format: functional
[5] = Peak plasma concentration in child with invasive aspergillosis administered at 30 mg/day schedule for 5 days followed by 48 hrs temporary treatment interruption measured on first day of resumption of therapy; format: ADME, organism-based; parameters: dose 30 mg/day; conditions: human

**Q.** For `CC[C@H](C)C[C@H](C)CCCCCCCCC(=O)N[C@H]1C[C@@H](O)[C@@H](NCCN)NC(=O)[C@@H]2[C@@H](O)CCN2C(=O)[C@H]([C@H](O)CCN)NC(=O)[C@H]([C@H](O)[C@@H](O)c2ccc(O)cc2)NC(=O)[C@@H]2C[C@@H](O)CN2C(=O)[C@H]([C@@H](C)O)NC1=O` [CASPOFUNGIN], which concentration at 120 h [1] is on record?
**A.** 6700 ng/mL

**Q.** And the Cmax [2]?
**A.** 11500 ng/mL

**Q.** What about the Cmin (Homo sapiens [3]) of the same molecule?
**A.** 1900 ng/mL

**Q.** What about the Cp (Homo sapiens [4]) of the same molecule?
**A.** 1000 ng/mL

**Q.** What about the MIC (Aspergillus fumigatus) of the same molecule?
**A.** 0.5 µg/mL (≈ 0.457 µM)

**Q.** And the Cmax [5]?
**A.** 5600 ng/mL
